Results: publication PMC9501014, “Amaryllidaceae-Type Alkaloids from Pancratium maritimum: Apoptosis-Inducing Effect and Cell Cycle Arrest on Triple-Negative Breast Cancer Cells” (Molecules, 2022)

Test system: HFF-1 cells
Test: Combination therapy with etoposide (SRB, CompuSyn), HFF-1
Format: cell-based, human
Conditions: for Combination Index HFF-1: 48 h
Procedure: The effect of 1.5 μM of compound 7 in combination with a range of concentrations of etoposide was evaluated after 48 h of treatment using CompuSyn software to calculate the combination index (CI) values for each combined treatment: CI < 1, synergy; 1 < CI < 1.1, additive effect; CI > 1.1, antagonism.
The effect of combined treatments on cell proliferation was analyzed by SRB assay. For each combination, the combination index (CI) values were calculated using the CompuSyn Software version 1.0; CI values < 1, 1 < CI < 1.1, and >1.1 indicate synergistic, additive, and antagonistic effects, respectively.

Compound: COc1cc2c(cc1O)C(=O)OC1[C@@H](O)C=C3CCN(C)C3[C@]21O (stereo partly drawn) [Compound 7, 2α-10bα-dihydroxy-9-O-demethylhomolycorine]
- Combination Index HFF-1 (1.5 µM compound 7 + etoposide 0.4 µM): 1.19
- Combination Index HFF-1 (1.5 µM compound 7 + etoposide 0.8 µM): 1.34
- Combination Index HFF-1 (1.5 µM compound 7 + etoposide 1.5 µM): 1.12
- Combination Index HFF-1 (1.5 µM compound 7 + etoposide 3 µM): 1.09
- type of interaction with etoposide, HFF-1 (same experimental conditions as in MDA-MB-231 cells): no synergistic effects
